Values quoted from earlier work, collected in patent EP3290033A2, “PHARMACEUTICAL PACKAGE” (Samyang Biopharmaceuticals Corporation, priority 2015, dated 2016).

How the values were obtained:
[1] = in vivo
[2] = higher than that of other first-generation 5-HT3 receptor antagonists

half-life [1]: ≥ 40 h
SMILES: O=C1c2cccc3c2[C@H](CCC3)CN1[C@@H]1CN2CCC1CC2 [palonosetron, (3aS)-2-[(3S)-1-azabicyclo[2.2.2]oct-3-yl]-2,3,3a,4,5,6-hexahydro-1H-benz[de]isoquinolin-1-one]
inhibitory effect on delayed vomiting [2]: 10 times
